These results are taken from patent US20160129005A1, “ADENINE DERIVATIVES HAVING IMMUNOMODULATING ANTI-INFLAMMATORY AND ANALGESIC ACTIVITY” (MEDESTEA RESEARCH & PRODUCTION S.p.A., priority 2011, published 2016).

One data set has as its system Swiss CD1 mice. Nature of the data set: CFA thermal hyperalgesia, synergy with opioids. The method, then: We compared the activity of […] with that of the opioids to study its analgesic effect.
Mice of the Swiss CD1 type were given a single intraplantar injection of 30 microlitres of complete Freund adjuvant (CFA) in the right plantar pad. Intraperitoneal injection of […] and/or of morphine (morphine chlorhydrate, Molteni) was administered 24 hours after injection of CFA according to the following scheme:
1. […] 7.5 mg/kg; 2. […] 10 mg/kg; 3. […] 200 mg/kg; 4. […] 50 mg/kg; 5. Morphine 0.4 mg/kg; 6. Morphine 2.5 mg/kg; 7. Morphine 1 mg/kg; 8. Morphine 0.4 mg/kg; 9. Morphine 1 mg/kg+[…] 10 mg/kg; 10. Morphine 0.4 mg/kg+[…] 10 mg/kg; 11. Morphine 1 mg/kg+[…] 10 mg/kg; 12. Morphine 0.4 mg/kg+[…] 10 mg/kg; 13. Morphine 4 mg/kg.
Groups 9-11 and 10-12 have the same doses respectively; they were repeated to confirm the results.
Thermal hyperalgesia was assessed using the Ugo Basile apparatus (Comerio, Italy).
The test was carried out before (baseline values) injection of CFA, after injection of CFA and 0.5, 1, 2, 3, 6 and 12 hours after injecting the drug in the inflamed pad.

The test system of another data set is DBA/1J mice. The experiment in a line: Rheumatoid arthritis: type II collagen immunization. Type of data set: in vivo, mouse. How it is done:
Rheumatoid arthritis (RA) is a chronic inflammatory disease that affects the joints in particular and is manifested by pain, stiffness and synovitis, which lead to destruction of the joint. Immunization of DBA/1J mice with type II collagen (CII) by intradermal injection, at the base of the tail, of 0.2 ml of an emulsion containing 2 mg/ml of bovine CII in complete Freund adjuvant induces T cells and autoantibodies specific to CII with clinical and histopathological signs that reproduce RA. Eighteen to twenty days after immunization, signs of inflammation appear, affecting one or more joints. At the first clinical signs of inflammation (inflammation of the digits and joints) with a score above 1.5 (Camps et al., 2005), we treated the animals with […] intraperitoneally (0.25 mg).
To establish the degree of infiltration of T cells in the arthritic lesions, sections fixed in formalin and embedded in paraffin were incubated with rabbit polyclonal anti-CD3 antibodies. After detection with peroxidase-labelled secondary antibodies, each sample was evaluated at 40× magnification and 3 immunoreactive “hot spots” were selected for counting the CD3^+ lymphocytes at 200× magnification.

Another data set relates to dendritic cells (DCs). Nature of the data set: Maturation of dendritic cells (flow cytometry of membrane antigens). Type of data set: cell-based. The method, then: The effect of […] on the various stages of maturation of the DCs was evaluated. The study was carried out using flow cytometry by analysing the principal membrane antigens characterizing the stage of differentiation and maturation of the DCs.
The DCs were obtained from peripheral whole blood and were plated in a suitable medium (DC medium). The immature DCs (DCi) on day 6 of culture were collected, analysed in the cytofluorimeter and were brought to maturation by stimulation with LPS 10 μg/ml overnight (O.N.). […] 300 μM was added to DC medium during the last 5 hours or simultaneously with maturation of the DCi with LPS (10 μg/ml) overnight. CD1a is a marker of immaturity specific to the DCs, expression of which decreases in mature DCs.
CD80 and CD86 are fundamental co-stimulatory molecules in the process of antigen presentation, and expression of them generally increases in mature DCs compared to immature DCs.
Background: Flow cytometry measures light scatter and fluorescence of single cells or particles in a stream.

The next data set relates to murine neuroblastoma. As to conditions: tissue cultures; Mirkin et al., Cancer Research 47, 1987; cited from earlier work.
The next data set concerns Dark Agouti (DA) rats. Nature of the data set: Chronic experimental autoimmune encephalomyelitis (MOG). As to conditions: 1 mg/kg per os daily from day of inoculation, to day 50; dose-dependent; FIG. 43. Type of data set: in vivo, rat. The method, then:
We investigated whether treatment with […], at the onset of EAE induced by immunization with MOG (myelin-oligodendrocyte-glycoprotein), stimulates histologic protection and functional recovery.
The motor and sensory deficits were classified according to the previously assigned “neuronal” clinical scores.
Chronic EAE was induced in 60 female adult Dark Agouti (DA) rats of 120-170 g, immunizing the animals with an intradermal injection, at the base of the tail, of […] of recombinant protein MOG1-125 in emulsified PBS in complete Freund adjuvant (CFA) containing hot-inactivated M. tuberculosis.
The rats were divided into 3 groups of 20 animals each and were treated with daily administrations of vehicle or […] 0.1 or 1 mg/kg per os, starting from the day of inoculation.
The neurological scores were measured and evaluated daily for the first thirty days, and thereafter only on weekdays (Monday-Friday) until the end of the study (day 50).
The range of neuroclinical scores begins at 0 (absence of neurologic symptoms) and ends with a score of 5 (complete paralysis of all legs or animal moribund).

In the next data set the test system is mdx mice. Nature of the data set: Muscular dystrophy model. Type of data set: in vivo, mouse. An excerpt: The mdx mouse is characterized by a nonsense mutation in the dystrophin gene and constitutes an experimental model of DMD. The muscle of mdx is histologically normal in early postnatal development, but goes towards necrosis starting from the third week of life. The mdx mice show high levels of creatine kinase (CK) in the serum and accumulation of inflammatory cells, both markers of muscular degeneration. To assess the effect of […] in the progression of dystrophy and of inflammation in DMD, we treated mdx mice (n=10) at 4 weeks of age (in accordance with the recent SOPs for preclinical drug trials in mdx) with […] (0.25 mg/mouse) intraperitoneally every day for two weeks. The same number of mice of the same age was treated with the vehicle as control. After two weeks of treatment with […], the CK levels had decreased by 70% (P<0.05) (FIG. 33).
Cross sections of anterior tibial muscles stained with haematoxylin/eosin were quantified in duplicate in blind conditions with ImageJ software. In the same sections we also assessed centralization of the nucleus, degeneration of muscle fibres and their regeneration. […] The values obtained for the mice treated with […] were similar to those obtained for the control mice of the same age and genotype but without mutation in the dystrophin gene.
To assess the effect of […] on the inflammatory infiltrate in the muscle of mdx mice, the muscle sections were decorated with anti-CD3 antibodies (T cells). This analysis detected a 40% decrease in the number of cells positive for CD3.

The mark [1] stands for this setting: quantitative PCR, vs vehicle, FIG. 35.

As for `C=C(C=O)OC(C=O)n1cnc2c(N)ncnc21` (centres unmarked) [2-[1-(6-aminopurin-9-yl)-2-oxoethoxy]prop-2-enal], the “values of nociception (thermal hyperalgesia)” value in the data set on Swiss CD1 mice (IMMUFLAM alone i.p., all the doses tested) is recorded as “brings back the values of nociception to the baseline values”. In addition, in the data set on Swiss CD1 mice (mice treated with IMMUFLAM alone), the “obsessive-compulsive disorders (behaviour)” value is on record as “did not display any behaviour of this kind”. Moreover, the “cartilage erosion (content of proteoglycans)” value in the data set on DBA/1J mice (0.25 mg i.p., FIG. 29A) is listed as “significant reduction in cartilage erosion”. Besides, the “CD3+ lymphocytes infiltrating the joint” value in the data set on DBA/1J mice (0.25 mg i.p., FIG. 29B) is “significant reduction in CD3+ lymphocytes”. Also, the clinical score result with DBA/1J mice (0.25 mg intraperitoneally, from score above 1.5, vs carrier, FIG. 29C) is given as “significant reduction in the clinical score”. Moreover, in the data set with dendritic cells (DCs) (300 μM), the “modulation of CD40 (negative regulation)” value is “less marked” and the “modulation of CD54 (negative regulation)” value is listed as “less marked”. Besides, the “class I histocompatibility antigen” value with dendritic cells (DCs) (300 μM, both overnight and at 5 hours) is given as “decreases”. Also, in the data set on dendritic cells (DCs) (DCs matured with LPS, 300 μM), the CD80 expression result was “no effects on CD80” and the CD86 expression result is on record as “negative regulation of CD86”. The “CD1a expression (marker of immaturity)” value with dendritic cells (DCs) (DCs matured with LPS, IMMUFLAM 300 μM at 5 hrs, vs LPS alone) is on record as “shown to increase”. In addition, the cytotoxic activity entry with murine neuroblastoma is listed as “cytotoxic activity”. For the same molecule, the neurological scores result with Dark Agouti (DA) rats was “remained lower throughout the period of observation”. Further, in the data set on mdx mice (0.25 mg/mouse i.p. daily for two weeks, P<0.05, FIG. 33), the “decrease of creatine kinase (CK) levels” value is 70%. Moreover, in the data set on mdx mice (anterior tibial muscles), the “centralization of the nucleus” value is reported as “significant reductions” and the “number of degenerative fibres” value is listed as “significant reductions”. Also, the “area of the muscle cross sections (CSA)” value with mdx mice (anterior tibial muscles, vs carrier, FIG. 34) is given as “significant increase in area of the muscle cross sections”. In addition, the “decrease in the number of cells positive for CD3 in muscle” value in the data set on mdx mice (anti-CD3 stained muscle sections) worked out at 40%. For the same molecule, in the data set on mdx mice (setting [1]), the I1-1β entry is on record as “significant reduction” and the “levels of mRNA typical of the Treg cells” value is reported as “significant increase”.
